We go through 23 compounds from US20220363686A1 (AiCuris GmbH & Co. KG, priority 2018, published 2022).

Read-outs that look alike come from different tables or passages of the source. A value given as a limit tells only on which side of the number the result lay.

Series [1] concerns the target HBV core protein (C-terminal truncated core protein containing 149 amino acids of the N-terminal assembly domain) (UniProt P03146). The experiment in a line: Biochemical capsid assembly assay (fluorescence quenching). Details: rows headed: Assembly Activity; other: BODIPY-FL labelled core protein, assembly started with NaCl, read after 6 min. As to conditions: read-out: Assembly Activity; BODIPY-FL labelled core protein, assembly started with NaCl, read after 6 min. Summed up:
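N-terminal assembly domain (residues 1–149) plus C-terminal Cys150, E. coli-expressed, BODIPY-FL-maleimide labelled, used at 1.0–2.0 μM in 50 mM HEPES pH 7.5 with 0.5% DMSO. Assembly started with NaCl ([…]); fluorescence quenching (ex 477/em 525 nm) read after 6 min. 8-point compound series; EC50 by non-linear regression.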

For series [2], the system named is HBV. The experiment in a line: Determination of HBV DNA from the supernatants of HepAD38 cells (anti-HBV activity). As to conditions: Hepatitis B virus, HePAD38, 144 h, HBV DNA in HepAD38 supernatant, day 6, qPCR, read-out: Cell Activity. The format is cell-based, hepatitis B virus. Summed up:
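HepAD38 cells (60,000/well) seeded in tetracycline-free medium to induce HBV, treated with half-log serial compound dilutions for 6 days at 37 °C. HBV DNA purified from filtered supernatant and quantified by real-time PCR against HBV plasmid standards; EC50 from relative copy numbers by non-linear regression.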

The nature of series [3]: Cell viability assay (AlamarBlue). As to conditions: human, HepAD38 cells. In general terms: The colour change of resazurin is a common sign of viable cells or microbes.
Method: Using the AlamarBlue viability assay cytotoxicity was evaluated in HepAD38 cells in the presence of 0.3 μg/ml tetracycline, which blocks the expression of the HBV genome. Assay condition and plate layout were in analogy to the anti-HBV assay, however other controls were used. On each assay plate six wells containing untreated HepAD38 cells were used as the 100% viability control, and six wells filled with assay medium only were used as 0% viability control. In addition, a geometric concentration series of cycloheximide starting at 60 μM final assay concentration was used as positive control in each experiment. After six days incubation period Alamar Blue Presto cell viability reagent (ThermoFisher, Dreieich) was added in 1/11 dilution to each well of the assay plate. After an incubation for 30 to 45 min at 37° C. the fluorescence signal, which is proportional to the number of living cells, was read using a Tecan Spectrafluor Plus plate reader with an excitation filter 550 nm and emission filter 595 nm, respectively. Data were normalized into percentages of the untreated control (100% viability) and assay medium (0% viability) before CC50 values were calculated using non-linear regression and the GraphPad Prism 6.0 (GraphPad Software, La Jolla, USA). Mean EC50 and CC50 values were used to calculate the selectivity index (SI=CC50/EC50) for each test compound.

HBV core protein (C-terminal truncated core protein containing 149 amino acids of the N-terminal assembly domain), sequence (P03146 whole entry, the tested form may be a part): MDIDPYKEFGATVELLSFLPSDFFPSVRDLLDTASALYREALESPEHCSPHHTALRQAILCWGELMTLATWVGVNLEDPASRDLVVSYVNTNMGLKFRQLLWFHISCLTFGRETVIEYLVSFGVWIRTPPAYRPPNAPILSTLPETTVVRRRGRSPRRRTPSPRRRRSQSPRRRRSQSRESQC

For orientation: CC50 means the concentration giving 50% cytotoxicity. The low end stands for harm at low concentration, the high end for better tolerance by the cells. On to `CN(CCOC(F)F)C(=O)c1cnn2c1CN(C(=O)c1cc3ccccc3[nH]1)CC2` [Example 62, N-[2-(difluoromethoxy)ethyl]-5-(1H-indole-2-carbonyl)-N-methyl-4H,5H,6H,7H-pyrazolo[1,5-a]pyrazine-3-carboxamide], for which the IC50 in series [1] is less than 5 µM. The EC50 in series [2] (printed as number instead of class symbol) is more than 10 µM. Further, in series [3], the CC50 at 6 days was more than 10 µM.
For the compound `CN(Cc1ccccc1)C(=O)c1cnn2c1CN(C(=O)c1cc3ccccc3[nH]1)CC2` [Example 63, N-benzyl-5-(1H-indole-2-carbonyl)-N-methyl-4H,5H,6H,7H-pyrazolo[1,5-a]pyrazine-3-carboxamide], the IC50 in series [1] is less than 5 µM. The EC50 in series [2] was less than 1 µM. In series [3], this compound displayed a CC50 at 6 days of more than 10 µM.
Turning to `CN(C(=O)c1cnn2c1CN(C(=O)c1cc3ccccc3[nH]1)CC2)C1(COCCO)CC1` [Example 64, N-{1-[(2-hydroxyethoxy)methyl]cyclopropyl}-5-(1H-indole-2-carbonyl)-N-methyl-4H,5H,6H,7H-pyrazolo[1,5-a]pyrazine-3-carboxamide], in series [1], the IC50 was less than 5 µM. Moreover, the EC50 in series [2] is less than 1 µM. The CC50 at 6 days in series [3] was more than 10 µM.
The matching figures for `CN(C(=O)c1cnn2c1CN(C(=O)c1cc3ccccc3[nH]1)CC2)C1(COCCCO)CC1` [Example 65, N-{1-[(3-hydroxypropoxy)methyl]cyclopropyl}-5-(1H-indole-2-carbonyl)-N-methyl-4H,5H,6H,7H-pyrazolo[1,5-a]pyrazine-3-carboxamide]: less than 5 µM, less than 1 µM and more than 10 µM.
Taken in the same sequence, the figures for `O=C(c1cc2ccccc2[nH]1)N1CCn2ncc(-c3cscn3)c2C1` [Example 66, 2-[3-(1,3-thiazol-4-yl)-4H,5H,6H,7H-pyrazolo[1,5-a]pyrazine-5-carbonyl]-1H-indole] were less than 5 µM, less than 1 µM and more than 10 µM.
Taken in the same sequence, the figures for `O=C(c1cc2ccccc2[nH]1)N1CCn2ncc(C(=O)N3CCCOCC34CC4)c2C1` [Example 67, 4-[5-(1H-indole-2-carbonyl)-4H,5H,6H,7H-pyrazolo[1,5-a]pyrazine-3-carbonyl]-8-oxa-4-azaspiro[2.6]nonane] were less than 5 µM, less than 1 µM and more than 10 µM.
Consider `O=C(c1cc2ccccc2[nH]1)N1CCn2ncc(C(=O)N3CCOCCC34CC4)c2C1` [Example 68, 4-[5-(1H-indole-2-carbonyl)-4H,5H,6H,7H-pyrazolo[1,5-a]pyrazine-3-carbonyl]-7-oxa-4-azaspiro[2.6]nonane], for which the IC50 in series [1] was less than 5 µM. For the same compound, the EC50 in series [2] was less than 1 µM. For the same compound, the CC50 at 6 days in series [3] was more than 10 µM.
The matching figures for `O=C(c1cc2ccccc2[nH]1)N1CCn2ncc(C(=O)N3CCOC(F)(F)C3)c2C1` [Example 69, 2-[3-(2,2-difluoromorpholine-4-carbonyl)-4H,5H,6H,7H-pyrazolo[1,5-a]pyrazine-5-carbonyl]-1H-indole]: less than 5 µM, less than 1 µM and more than 10 µM.
The matching figures for `CN(C(=O)c1cnn2c1CN(C(=O)c1cc3ccccc3[nH]1)CC2)C1(c2cccnc2)CC1` [Example 72, 5-(1H-indole-2-carbonyl)-N-methyl-N-[1-(pyridin-3-yl)cyclopropyl]-4H,5H,6H,7H-pyrazolo[1,5-a]pyrazine-3-carboxamide]: less than 5 µM, less than 1 µM and more than 10 µM.
Consider `O=C(c1cc2ccccc2[nH]1)N1CCn2ncc(C3CCCO3)c2C1` (stereo not drawn) [Example 73, 2-[3-(oxolan-2-yl)-4H,5H,6H,7H-pyrazolo[1,5-a]pyrazine-5-carbonyl]-1H-indole], for which the IC50 in series [1] was less than 5 µM. In addition, in series [2], the EC50 was less than 1 µM. This compound also returned a 50% cytotoxic concentration (CC50) at 6 days in series [3] of more than 10 µM.
The matching figures for `CN(C(=O)c1cnn2c1CN(C(=O)c1cc3ccccc3[nH]1)CC2)C1CC1` [Example 74, N-cyclopropyl-5-(1H-indole-2-carbonyl)-N-methyl-4H,5H,6H,7H-pyrazolo[1,5-a]pyrazine-3-carboxamide]: less than 5 µM, less than 1 µM and more than 10 µM.
Take `O=C(c1cc2ccccc2[nH]1)N1CCn2ncc(C(=O)N(CCO)C3(CO)CC3)c2C1` [Example 75, N-(2-hydroxyethyl)-N-[1-(hydroxymethyl)cyclopropyl]-5-(1H-indole-2-carbonyl)-4H,5H,6H,7H-pyrazolo[1,5-a]pyrazine-3-carboxamide]: the IC50 in series [1] was less than 5 µM. Also, the EC50 in series [2] was less than 1 µM. The same compound had a CC50 at 6 days in series [3] of more than 10 µM.
The matching figures for `O=C(c1cc2ccccc2[nH]1)N1CCn2ncc(N3CCC4(CC4)C3=O)c2C1` [Example 76, 5-[5-(1H-indole-2-carbonyl)-4H,5H,6H,7H-pyrazolo[1,5-a]pyrazin-3-yl]-5-azaspiro[2.4]heptan-4-one]: 5 to 10 µM, 1 to 10 µM and more than 10 µM.
Regarding `CN(CCO)C(=O)c1cnn2c1CN(C(=O)c1cc3ccccc3[nH]1)CC2` [Example 77, N-(2-hydroxyethyl)-5-(1H-indole-2-carbonyl)-N-methyl-4H,5H,6H,7H-pyrazolo[1,5-a]pyrazine-3-carboxamide], the IC50 in series [1] was less than 5 µM. Besides, in series [2], the EC50 was less than 1 µM. Also, the CC50 at 6 days in series [3] is more than 10 µM.
The matching figures for `C[C@H](NC(=O)c1cnn2c1CN(C(=O)c1cc3ccccc3[nH]1)CC2)C(F)(F)F` [Example 78, 5-(1H-indole-2-carbonyl)-N-[(2S)-1,1,1-trifluoropropan-2-yl]-4H,5H,6H,7H-pyrazolo[1,5-a]pyrazine-3-carboxamide]: less than 5 µM, less than 1 µM and more than 10 µM.
The matching figures for `C[C@@H](NC(=O)c1cnn2c1CN(C(=O)c1cc3ccccc3[nH]1)CC2)C(F)(F)F` [Example 79, 5-(1H-indole-2-carbonyl)-N-[(2R)-1,1,1-trifluoropropan-2-yl]-4H,5H,6H,7H-pyrazolo[1,5-a]pyrazine-3-carboxamide]: less than 5 µM, less than 1 µM and more than 10 µM.
As for `CN(C(=O)c1cnn2c1CN(C(=O)c1cc3ccccc3[nH]1)CC2)C1(CNCC(F)(F)F)CC1` [Example 80, 5-(1H-indole-2-carbonyl)-N-methyl-N-(1-{[(2,2,2-trifluoroethyl)amino]methyl}cyclopropyl)-4H,5H,6H,7H-pyrazolo[1,5-a]pyrazine-3-carboxamide], the IC50 in series [1] was less than 5 µM. The EC50 in series [2] is less than 1 µM. For the same compound, the CC50 at 6 days in series [3] was more than 10 µM.
Taken in the same sequence, the figures for `CN(C(=O)c1cnn2c1CN(C(=O)c1cc3c(F)c(F)ccc3[nH]1)CC2)C1(CO)CC1` [Example 81, 5-(4,5-difluoro-1H-indole-2-carbonyl)-N-[1-(hydroxymethyl)cyclopropyl]-N-methyl-4H,5H,6H,7H-pyrazolo[1,5-a]pyrazine-3-carboxamide] were less than 5 µM, less than 1 µM and more than 10 µM.
Taken in the same sequence, the figures for `CN(C(=O)c1cnn2c1CN(C(=O)c1cc3c(F)ccc(F)c3[nH]1)CC2)C1(CO)CC1` [Example 82, 5-(4,7-difluoro-1H-indole-2-carbonyl)-N-[1-(hydroxymethyl)cyclopropyl]-N-methyl-4H,5H,6H,7H-pyrazolo[1,5-a]pyrazine-3-carboxamide] were less than 5 µM, less than 1 µM and more than 10 µM.
The matching figures for `Cc1cc(F)cc2[nH]c(C(=O)N3CCn4ncc(C(=O)N(C)C5(CO)CC5)c4C3)cc12` [Example 83, 5-(6-fluoro-4-methyl-1H-indole-2-carbonyl)-N-[1-(hydroxymethyl)cyclopropyl]-N-methyl-4H,5H,6H,7H-pyrazolo[1,5-a]pyrazine-3-carboxamide]: less than 5 µM, less than 1 µM and more than 10 µM.
`CN(C(=O)c1cnn2c1CN(C(=O)c1cc3cc(F)c(Cl)cc3[nH]1)CC2)C1(CO)CC1` [Example 84, 5-(6-chloro-5-fluoro-1H-indole-2-carbonyl)-N-[1-(hydroxymethyl)cyclopropyl]-N-methyl-4H,5H,6H,7H-pyrazolo[1,5-a]pyrazine-3-carboxamide]: the IC50 in series [1] was less than 5 µM. Further, the EC50 in series [2] is less than 1 µM. For the same compound, the CC50 at 6 days in series [3] is more than 10 µM.
The matching figures for `CN(C(=O)c1cnn2c1CN(C(=O)c1cc3c(Cl)cc(F)cc3[nH]1)CC2)C1(CO)CC1` [Example 85, 5-(4-chloro-6-fluoro-1H-indole-2-carbonyl)-N-[1-(hydroxymethyl)cyclopropyl]-N-methyl-4H,5H,6H,7H-pyrazolo[1,5-a]pyrazine-3-carboxamide]: less than 5 µM, less than 1 µM and more than 10 µM.
The matching figures for `O=C(O)c1ccccc1C1CC(=O)N(c2cnn3c2CN(C(=O)c2cc4ccccc4[nH]2)CC3)C1` (stereo not drawn) [Example 86, 2-{1-[5-(1H-indole-2-carbonyl)-4H,5H,6H,7H-pyrazolo[1,5-a]pyrazin-3-yl]-5-oxopyrrolidin-3-yl}benzoic Acid]: less than 5 µM, 1 to 10 µM and more than 10 µM.
